Data as given in patent US10413505B1, “Pharmaceutical compositions and methods of using the same” (priority 2017, dated 2019).
“And” between values parts separate entries of the source, which are not always exact repeats. Equal entries are not always repeated.

Key:
[1] = Example 2 plasma pharmacokinetics, normal renal function vs severe renal impairment
[2] = Example 1 urinary pharmacokinetics after intranasal administration; format: in vivo, human; details: healthy subjects; single intranasal 160 mg cocaine HCl; urine 0-12 h; metabolites as cocaine equivalents
Description: A single dose of a pharmaceutical composition was administered to both nostrils using cottonoid pledgets. […] Each pledget absorbed approximately 1 mL of pharmaceutical composition (i.e., 40 mg cocaine hydrochloride). Two soaked pledgets were placed into each nasal cavity of the subject and against the anterior septum for 20 minutes; thus, a total dose of 160 mg of cocaine hydrochloride was administered.
Urine samples were collected pre-dose and at the following intervals from the start of intranasal application of the pharmaceutical composition: 0-2 hours, 2-4 hours, 4-8 hours, and 8-12 hours. […] A 25-μL aliquot of each urine sample was processed by liquid-liquid extraction.
Urinary pharmacokinetic parameters were analyzed using noncompartmental methods.

[3] = Example 3 plasma pharmacokinetics, normal hepatic function vs hepatic impairment; details: for AUC0→t (Geometric mean) / AUC0→t (Max) / AUC0→t (Mean) / AUC0→t (Median) / AUC0→t (Min) / AUC0→∞ (Geometric mean) / AUC0→∞ (Max) / AUC0→∞ (Mean) / AUC0→∞ (Median) / AUC0→∞ (Min) / Clast (Geometric mean) / Clast (Max) / Clast (Mean) / Clast (Median) / Clast (Min) / Cmax (Geometric mean) / Cmax (Max) / Cmax (Mean) / Cmax (Median) / Cmax (Min) / Tlast (Geometric mean) / Tlast (Max) / Tlast (Mean) / Tlast (Median) / Tlast (Min) / Tmax (Geometric mean) / Tmax (Max) / Tmax (Mean) / Tmax (Median) / Tmax (Min) / t1/2 (Geometric mean) / t1/2 (Max) / t1/2 (Mean) / t1/2 (Median) / t1/2 (Min): single intranasal 160 mg cocaine HCl, plasma
[4] = normal renal function, single intranasal 160 mg cocaine HCl, plasma
[5] = severe renal impairment, single intranasal 160 mg cocaine HCl, plasma

CN1[C@H]2CC[C@@H]1[C@@H](C(=O)O)[C@@H](OC(=O)c1ccccc1)C2 [BE, benzoylecgonine]
AUC0→t (Geometric mean) [1, 4]: 589.5 ng·h/mL
AUC0→t (Max) [1, 4]: 2126 ng·h/mL
AUC0→t (Mean) [1, 4]: 762.1 ng·h/mL
AUC0→t (Median) [1, 4]: 616 ng·h/mL
AUC0→t (Min) [1, 4]: 167.4 ng·h/mL
AUC0→∞ (Geometric mean) [1, 4]: 639.2 ng·h/mL
AUC0→∞ (Max) [1, 4]: 2284 ng·h/mL
AUC0→∞ (Mean) [1, 4]: 823.8 ng·h/mL
AUC0→∞ (Median) [1, 4]: 676 ng·h/mL
AUC0→∞ (Min) [1, 4]: 166.1 ng·h/mL
Clast (Geometric mean) [1, 4]: 4 ng/mL and 3.96 ng/mL
Clast (Max) [1, 4]: 13.60 ng/mL
Clast (Mean) [1, 4]: 5.08 ng/mL
Clast (Median) [1, 4]: 4.34 ng/mL
Clast (Min) [1, 4]: 1.32 ng/mL
Cmax (Geometric mean) [1, 4]: 40.9 ng/mL
Cmax (Max) [1, 4]: 158.0 ng/mL
Cmax (Mean) [1, 4]: 55.7 ng/mL
Cmax (Median) [1, 4]: 42.1 ng/mL
Cmax (Min) [1, 4]: 9.0 ng/mL
Tlast (Geometric mean) [1, 4]: 32.0 h
Tlast (Max) [1, 4]: 32.0 h
Tlast (Mean) [1, 4]: 32.0 h
Tlast (Median) [1, 4]: 32.0 h
Tlast (Min) [1, 4]: 1920 min
Tmax (Geometric mean) [1, 4]: 2.75 h
Tmax (Max) [1, 4]: 6.00 h
Tmax (Mean) [1, 4]: 3.22 h
Tmax (Median) [1, 4]: 2.5 h
Tmax (Min) [1, 4]: 75 min
t1/2 (Geometric mean) [1, 4]: 8.429 h
t1/2 (Max) [1, 4]: 9.79 h
t1/2 (Mean) [1, 4]: 8.47 h
t1/2 (Median) [1, 4]: 8.32 h
t1/2 (Min) [1, 4]: 442 min
geometric mean AUClast, fold higher than in normal subjects ([1]; severe renal impairment vs normal renal function): more than 3.5 fold
AUC0→t (Geometric mean) [1, 5]: 2091 ng·h/mL
AUC0→t (Max) [1, 5]: 6242 ng·h/mL
AUC0→t (Mean) [1, 5]: 2733.6 ng·h/mL
AUC0→t (Median) [1, 5]: 1758 ng·h/mL
AUC0→t (Min) [1, 5]: 605.7 ng·h/mL
Clast (Geometric mean) [1, 5]: 41.3 ng/mL
Clast (Max) [1, 5]: 133.0 ng/mL
Clast (Mean) [1, 5]: 54.36 ng/mL
Clast (Median) [1, 5]: 35.7 ng/mL
Clast (Min) [1, 5]: 14.50 ng/mL
Cmax (Geometric mean) [1, 5]: 90.5 ng/mL
Cmax (Max) [1, 5]: 290.0 ng/mL
Cmax (Mean) [1, 5]: 120.4 ng/mL
Cmax (Median) [1, 5]: 75.8 ng/mL
Cmax (Min) [1, 5]: 23.7 ng/mL
Tlast (Geometric mean) [1, 5]: 32.0 h
Tlast (Max) [1, 5]: 32.0 h
Tlast (Mean) [1, 5]: 32.0 h
Tlast (Median) [1, 5]: 32.0 h
Tlast (Min) [1, 5]: 1920 min
Tmax (Geometric mean) [1, 5]: 6.13 h
Tmax (Max) [1, 5]: 12.0 h
Tmax (Mean) [1, 5]: 6.625 h
Tmax (Median) [1, 5]: 6.0 h
Tmax (Min) [1, 5]: 180 min
t1/2 (Geometric mean) [1, 5]: 24.65 h
t1/2 (Max) [1, 5]: 31.62 h
t1/2 (Mean) [1, 5]: 24.97 h
t1/2 (Median) [1, 5]: 24.0 h
t1/2 (Min) [1, 5]: 1191 min
Total Urinary Recovery (Geometric mean) [2]: 713 µg
Total Urinary Recovery (Mean) [2]: 816 µg
Total Urinary Recovery (Median) [2]: 769 µg
Urinary Recovery (Geometric mean) [2]: 0.467 % dose
Urinary Recovery (Mean) [2]: 0.534 % dose
Urinary Recovery (Median) [2]: 0.504 % dose
AUClast, times higher than normal subjects ([3]; Grade B hepatic impairment): approximately 2.4 times
AUClast, percent increased vs normal ([3]; Grade C hepatic impairment): 12%
AUC0→t (Geometric mean) ([3]; hepatic impairment): 1235 ng·h/mL
AUC0→t (Max) ([3]; hepatic impairment): 3356 ng·h/mL
AUC0→t (Mean) ([3]; hepatic impairment): 1402 ng·h/mL
AUC0→t (Median) ([3]; hepatic impairment): 1190 ng·h/mL
AUC0→t (Min) ([3]; hepatic impairment): 606 ng·h/mL
AUC0→∞ (Geometric mean) ([3]; hepatic impairment): 1513 ng·h/mL
AUC0→∞ (Max) ([3]; hepatic impairment): 3532 ng·h/mL
AUC0→∞ (Mean) ([3]; hepatic impairment): 1724 ng·h/mL
AUC0→∞ (Median) ([3]; hepatic impairment): 1448 ng·h/mL
AUC0→∞ (Min) ([3]; hepatic impairment): 647 ng·h/mL
Clast (Geometric mean) ([3]; hepatic impairment): 14.3 ng/mL
Clast (Max) ([3]; hepatic impairment): 42.6 ng/mL
Clast (Mean) ([3]; hepatic impairment): 17.6 ng/mL
Clast (Median) ([3]; hepatic impairment): 16.6 ng/mL
Clast (Min) ([3]; hepatic impairment): 3.33 ng/mL
Cmax (Geometric mean) ([3]; hepatic impairment): 67.1 ng/mL
Cmax (Max) ([3]; hepatic impairment): 248 ng/mL
Cmax (Mean) ([3]; hepatic impairment): 81.2 ng/mL
Cmax (Median) ([3]; hepatic impairment): 67.8 ng/mL
Cmax (Min) ([3]; hepatic impairment): 27.4 ng/mL
Tlast (Geometric mean) ([3]; hepatic impairment): 32.0 h
Tlast (Max) ([3]; hepatic impairment): 32.0 h
Tlast (Mean) ([3]; hepatic impairment): 32.0 h
Tlast (Median) ([3]; hepatic impairment): 32.0 h
Tlast (Min) ([3]; hepatic impairment): 1920 min
Tmax (Geometric mean) ([3]; hepatic impairment): 6.95 h
Tmax (Max) ([3]; hepatic impairment): 12.0 h
Tmax (Mean) ([3]; hepatic impairment): 7.50 h
Tmax (Median) ([3]; hepatic impairment): 7.00 h
Tmax (Min) ([3]; hepatic impairment): 240 min
t1/2 (Geometric mean) ([3]; hepatic impairment): 12.3 h
t1/2 (Max) ([3]; hepatic impairment): 31.0 h
t1/2 (Mean) ([3]; hepatic impairment): 14.0 h
t1/2 (Median) ([3]; hepatic impairment): 12.1 h
t1/2 (Min) ([3]; hepatic impairment): 399 min
AUC0→t (Geometric mean) ([3]; normal hepatic function): 603 ng·h/mL
AUC0→t (Max) ([3]; normal hepatic function): 2969 ng·h/mL
AUC0→t (Mean) ([3]; normal hepatic function): 784 ng·h/mL
AUC0→t (Median) ([3]; normal hepatic function): 523 ng·h/mL
AUC0→t (Min) ([3]; normal hepatic function): 144 ng·h/mL
AUC0→∞ (Geometric mean) ([3]; normal hepatic function): 667 ng·h/mL
AUC0→∞ (Max) ([3]; normal hepatic function): 3446 ng·h/mL
AUC0→∞ (Mean) ([3]; normal hepatic function): 869 ng·h/mL
AUC0→∞ (Median) ([3]; normal hepatic function): 568 ng·h/mL
AUC0→∞ (Min) ([3]; normal hepatic function): 182 ng·h/mL
Clast (Geometric mean) ([3]; normal hepatic function): 4.33 ng/mL
Clast (Max) ([3]; normal hepatic function): 31.6 ng/mL
Clast (Mean) ([3]; normal hepatic function): 6.17 ng/mL
Clast (Median) ([3]; normal hepatic function): 3.71 ng/mL
Clast (Min) ([3]; normal hepatic function): 2.02 ng/mL
Cmax (Geometric mean) ([3]; normal hepatic function): 43.7 ng/mL
Cmax (Max) ([3]; normal hepatic function): 171 ng/mL
Cmax (Mean) ([3]; normal hepatic function): 57.5 ng/mL
Cmax (Median) ([3]; normal hepatic function): 35.5 ng/mL
Cmax (Min) ([3]; normal hepatic function): 7.03 ng/mL
Tlast (Geometric mean) ([3]; normal hepatic function): 32.0 h
Tlast (Max) ([3]; normal hepatic function): 32.0 h
Tlast (Mean) ([3]; normal hepatic function): 32.0 h
Tlast (Median) ([3]; normal hepatic function): 32.0 h
Tlast (Min) ([3]; normal hepatic function): 1920 min
Tmax (Geometric mean) ([3]; normal hepatic function): 1.96 h
Tmax (Max) ([3]; normal hepatic function): 8.00 h
Tmax (Mean) ([3]; normal hepatic function): 2.38 h
Tmax (Median) ([3]; normal hepatic function): 1.63 h
Tmax (Min) ([3]; normal hepatic function): 60 min
t1/2 (Geometric mean) ([3]; normal hepatic function): 9.00 h
t1/2 (Max) ([3]; normal hepatic function): 13.1 h
t1/2 (Mean) ([3]; normal hepatic function): 9.16 h
t1/2 (Median) ([3]; normal hepatic function): 8.91 h
t1/2 (Min) ([3]; normal hepatic function): 398 min
